According to ChEMBL document CHEMBL5712922, “Synergistic effects of type I PRMT and PARP inhibitors against non-small cell lung cancer cells” (Clin Epigenetics, 2021):

Each molecule was assayed on A549 (assay: Antiproliferative against human A549 cells assessed as viable cells pretreated with MS023 for 24 hrs followed by compound addition at 10 uM measured after for 24 hrs relative to control). Conditions: A549, 24 h, read-out: Activity.

Row | SMILES | viability at 10 µM [%]
1 | CCCCCCCc1ccc(CCc2cccc(O)c2C(=O)O)cc1 | 54.2
2 | O=C(O)c1ccc(O)c2ncccc12 | 54.2
3 | O=C(c1cncc(Br)c1)N1CCC(N2CCCC2)CC1 | 54.2
4 | N#CC[C@@H](C1CCCC1)n1cc(-c2ncnc3[nH]ccc23)cn1 | 54.2
5 | O=C(c1ccc(Cl)cc1Cl)n1nnc2ccccc21 | 54.2
6 | CN(C)CCCNC(=O)c1ccc(-c2cc(O)c3ncccc3c2)cc1 | 54.2
7 | CN(C)c1ccc(C(=O)NCCCCCCC(=O)NO)cc1 | 54.2
8 | Cc1cc(Cl)ccc1OCCCC(=O)NO | 54.2
9 | O=C(O)[C@H](Cc1c[nH]c2ccccc12)N1C(=O)c2ccccc2C1=O | 54.2
10 | Cc1cc(Nc2nc(N[C@@H](C)c3ccc(F)cc3)c(C#N)cc2F)n[nH]1 | 54.2
11 | COc1cc2c(NC3CCN(CC4CCCCC4)CC3)nc(N3CCCN(C(C)C)CC3)nc2cc1OCCCN1CCCCC1 | 54.2
12 | O=C1NC(=O)/C(=C/c2cccc(C(F)(F)F)c2)S1 | 54.2
13 | Cc1sc2c(c1C)C(c1ccc(Cl)cc1)=N[C@@H](CC(=O)OC(C)(C)C)c1nnc(C)n1-2 | 54.2
14 | Clc1ccc(N/N=C(\c2ccccc2)c2ccccn2)nc1 | 54.2
15 | Cc1cnc(Nc2ccc(N3CCN(C)CC3)cc2)nc1Nc1cccc(S(=O)(=O)NC(C)(C)C)c1 | 54.2
16 | COc1cc2c(Nc3ccc(NC(=O)c4ccccc4)cc3)ncnc2cc1OCCCN1CCOCC1 | 54.2
17 | N[C@@H]1CCCN(c2c(/C=C3\SC(=O)NC3=O)cccc2-c2ccccc2)C1 | 54.2
18 | CN1CCN(c2cccc(Nc3nc4c(-c5ccc(S(C)(=O)=O)cc5)cccn4n3)c2)CC1 | 54.2
19 | CC(C)N(CCCNC(=O)Nc1ccc(C(C)(C)C)cc1)C[C@H]1O[C@@H](n2ccc3c(N)ncnc32)[C@H](O)[C@@H]1O | 54.2
20 | COc1ccc(Cn2ccc3ccc(C(=O)NO)cc32)cc1 | 54.2
21 | CC(=O)N1c2ccc(-c3ccc(C(=O)O)cc3)cc2[C@H](Nc2ccc(Cl)cc2)C[C@@H]1C | 54.2
22 | COc1ccccc1S(=O)(=O)Nc1ccc2c(c1)CN(C)C(=O)N2 | 54.2

Row | SMILES | viability at 10 µM [%]
23 | Cc1cc(Nc2ccc(NC(=O)c3ccc(Nc4ccnc5ccccc45)cc3)cc2)nc(N)n1 | 54.2
24 | COc1ccc(C(=O)C2CCN(CC(=O)N(Cc3nc4c(c(=O)[nH]3)COCC4)CC3CC3)CC2)cc1 | 54.2
25 | O=C(c1ccc(C(=O)N2CCC(N3CCCC3)CC2)c(Nc2ccccc2)c1)N1CCC(N2CCCC2)CC1 | 54.2
26 | Cc1cc(/N=N/c2ccc(S(=O)(=O)Nc3ccccn3)cc2)c(N)cc1O | 54.2
27 | CC(C)N(CCCNC(=O)Nc1ccc(C(C)(C)C)cc1)C[C@H]1O[C@@H](n2cc(Br)c3c(N)ncnc32)[C@H](O)[C@@H]1O | 54.2
28 | C[C@H](NC(=O)CCc1nc2ccccc2c(=O)[nH]1)c1ccccc1 | 54.2
29 | C/C(=N\NC(=O)c1cccc(S(=O)(=O)N2CCOCC2)c1)c1cc(Cl)ccc1O | 54.2
30 | COc1cc2c(cc1OCCCN1CCCC1)N=C(N)C21CCC1 | 54.2
31 | O=C(NCC1(c2nc(-c3ccccc3)cs2)CCOCC1)c1cccc(-c2noc(C(F)(F)F)n2)c1 | 54.2
32 | CCOC(=O)Nc1cc(-c2ccc(C)c(NS(C)(=O)=O)c2)nn2c(C)nnc12 | 54.2
33 | O=C(O)CNC(=O)c1c(O)c2ccccc2n(Cc2ccccc2)c1=O | 54.2
34 | O=C(O)CCNc1cc(N2CCc3ccccc3CC2)nc(-c2ccccn2)n1 | 54.2
35 | COc1cc2nc(N3CCCC3)nc(NCCCCCN3CCCC3)c2cc1OC | 54.2
36 | CCC(CC)n1ccc2c(C(=O)NCc3c(C)cc(C)[nH]c3=O)cc(C#N)cc21 | 54.2
37 | Cn1c(/C=C/C(=O)NO)ccc1/C=C/C(=O)c1cccc(F)c1 | 54.2
38 | CCCc1cc2c(N3CCN(C4=NCC(C)(C)S4)CC3)ncnc2s1 | 54.2
39 | COc1cc(C)[nH]c(=O)c1CNC(=O)c1c(C)n([C@H](C)C2CCOCC2)c2ccccc12 | 54.2
40 | CCS(=O)(=O)N1CCC([C@@H](C)n2c(C)c(C(=O)NCc3c(OC)cc(C)[nH]c3=O)c3ccccc32)CC1 | 54.2
41 | COc1ccc(CCc2nc3cc(-c4c(C)noc4C)ccc3n2C[C@H](C)N2CCOCC2)cc1Cl | 54.2
42 | CCN(c1cc(C#CCN2CCOCC2)cc(C(=O)NCc2c(C)cc(C)[nH]c2=O)c1C)[C@H]1CC[C@H](N(C)CCOC)CC1 | 54.2
43 | CC(C)c1cc2c(N3CCN(C4=NCC(C)(C)S4)CC3)ncnc2s1 | 54.2
44 | CC1=NN(c2ccc(C(=O)O)cc2)C(=O)/C1=C/c1ccc(-c2cc(C)c(C)cc2[N+](=O)[O-])o1 | 54.2

Row | SMILES | viability at 10 µM [%]
45 | CCCOc1ccn2c(C(C)=O)cc(-c3ccccc3S(C)(=O)=O)c2c1 | 54.2
46 | O=C(/C=C/N1C[C@H]2C[C@@H]1CN2c1ccccn1)c1ccccc1O | 54.2
47 | CCn1cc(-c2cccc(C(F)(F)F)c2)c2sc(C(=N)NC3CCS(=O)(=O)CC3)cc2c1=O | 54.2
48 | CN1CCc2c(c3ccccc3n2Cc2ccc(C(=O)NO)cc2)C1 | 54.2
49 | COc1cc(-c2cn(C)c(=O)c3cnccc23)cc(OC)c1CN(C)C | 54.2
50 | CCC(CC)(NC(=O)C(C)C)C(=O)N[C@@H](CCCNC(=N)N)C(=O)NC1(C(=O)NC(c2ccc(F)cc2)c2ccc(F)cc2)CCCC1 | 54.2
51 | Cc1cc(C)c(CNC(=O)c2cc(-c3ccc(N4CCN(C)CC4)nc3)cc3c2c(C)cn3C(C)C)c(=O)[nH]1 | 54.2
52 | COC(=O)c1ccc2c(c1)nc(NC(=O)c1ccccc1)n2CCCc1ccccc1 | 54.2
53 | N#Cc1ccc(-c2csc(NN=C3CCCC3)n2)cc1 | 54.2
54 | O=C(NC[C@H](O)CN1CCc2ccccc2C1)c1cc(NC2COC2)ncn1 | 54.2
55 | O=C(NCC(=O)N1CCCC1)Nc1ccc2cnccc2c1 | 54.2
56 | Nc1cc(F)ccc1NC(=O)/C=C/c1cnn(C/C=C/c2ccccc2)c1 | 54.2
57 | O=C(COc1cccc2c(=O)[nH]ccc12)c1ccccc1 | 54.2
58 | Cc1cc(N2C[C@@H](C)N[C@@H](C)C2)ncc1-c1ccc(-c2nc3c(ccn3C)c(=O)[nH]2)cc1 | 54.2
59 | NC(=O)C1CCCc2c1[nH]c1ccc(Cl)cc21 (stereo unspecified) | 54.2
60 | c1ccc([C@@H]2C[C@H]2NC2CCNCC2)cc1 | 54.2
61 | N[C@H]1C[C@@H]1c1ccc(-c2cccc(O)c2)cc1 | 54.2
62 | O=C(Nc1ccc(-c2ccnc(Nc3ccc(N4CCOCC4)cc3)n2)cc1)[C@@H]1CCCN1 | 54.2
63 | Cc1sc2c(c1C)C(c1ccc(Cl)cc1)=N[C@@H](CC(N)=O)c1nnc(C)n1-2 | 54.2
64 | O=C(NC[C@H](O)CN1CCc2ccccc2C1)c1ccnc(NC2CCC2)c1 | 54.2
65 | N[C@H]1CC[C@H](N[C@@H]2C[C@H]2c2ccccc2)CC1 | 54.2
66 | Fc1cc(-c2cccc3ncc(-c4cnn(C5CCNCC5)c4)nc23)cc(F)c1CN1CCOCC1 | 54.2

Row | SMILES | viability at 10 µM [%]
67 | O=C(Nc1ccccc1-c1cn2c(CN3CCNCC3)csc2n1)c1cnc2ccccc2n1 | 54.2
68 | COc1cc2ncnc(Nc3ccc(O)c(Br)c3)c2cc1OC | 54.2
69 | CCCCCCCCCC(=O)N[C@@H](Cc1c[nH]c2ccccc12)C(=O)N[C@H](CC(N)=O)C(=O)N[C@@H](CC(=O)O)C(=O)N[C@@H]1C(=O)NCC(=O)N[C@@H](CCCN)C(=O)N[C@@H](CC(=O)O)C(=O)N[C@H](C)C(=O)N[C@@H](CC(=O)O)C(=O)NCC(=O)N[C@H](CO)C(=O)N[C@@H]([C@H](C)CC(=O)O)C(=O)N[C@@H](CC(=O)c2ccccc2N)C(=O)O[C@@H]1C | 54.2
70 | O=C([C@@H](Cc1cccc(C(F)(F)F)c1)NS(=O)(=O)c1cc(F)c2c(c1)CCNC2)N1CCCC1 | 54.2
71 | CCN1CCN(C(=O)Cc2ccc(Nc3ncc(F)c(Nc4ccc(C(=O)Nc5ccccc5Cl)cc4)n3)cc2)CC1 | 54.2
72 | CN(CC[C@H](N)CC(=O)N[C@H]1C=C[C@H](n2ccc(N)nc2=O)O[C@@H]1C(=O)O)C(=N)N | 54.2
73 | CC(C)N(CCC(=O)c1ccc2ccccc2c1)Cc1ccccc1 | 54.2
74 | N#C/C(=C\c1ccc(O)c(O)c1)C(=O)NCc1ccccc1 | 54.2
75 | COc1cc2nc(N3CCCN(C)CC3)nc(NC3CCN(Cc4ccccc4)CC3)c2cc1OC | 54.2
76 | COc1cc2c(cc1NS(=O)(=O)c1ccc(Br)cc1C)n(C)c(=O)n2C | 54.2
77 | Nc1nccc2c1ncn2[C@@H]1C=C(CO)[C@@H](O)[C@H]1O | 54.2
78 | O=C(O)c1ccc(CN2CCC(CN[C@@H]3C[C@H]3c3ccccc3)CC2)cc1 | 54.2
79 | NC1=NC(=O)/C(=C\c2ccc(O)cc2)S1 | 54.2
80 | CNNCc1ccc(C(=O)NC(C)C)cc1 | 54.2
81 | CCOC(=O)CCNc1cc(N2CCc3ccccc3CC2)nc(-c2ccccn2)n1 | 54.2
82 | CCCOc1ccc(CCc2nc3cc(-c4c(C)noc4C)ccc3n2CCN2CCOCC2)cc1 | 54.2
83 | CN1CCCN(C(=O)c2cccc(-c3ccc(/C=C4/C(=O)Nc5ccc(Cl)cc54)o3)c2)CC1 | 54.2
84 | CCn1c2ccccc2c2cc(CNCc3ccccc3OC)ccc21 | 54.2
85 | CN(C)Cc1ccc(-c2nc3cccc4c3n2CCNC4=O)cc1 | 54.2
86 | O=C(CCCCCN1C(=O)c2cccc3cccc(c23)C1=O)NO | 54.2
